Assay results taken from US4204990A, “Somatostatin analogues” (American Home Products Corporation, priority 1978, dated 1980).
Where a name gives a salt, the structure may show the parent alone. Positions of bridges follow the written chain, without caps; N, C: chain ends. Non-standard residues stand in square brackets, D forms with d. Residues, ends and D or L forms follow the SMILES beside them.

Assays:
Format in all cases: in vivo, rat
growth hormone [1] = assay: Arginine-stimulated growth hormone level in Nembutal-anaesthetised rats after subcutaneous test compound; settings: for GH: p<0.01
Protocol: (§1) Albino male rats were administered Nembutal intraperitoneally at a dose of 50 milligrams per kilogram. Fifteen minutes later a subcutaneous injection of the test compound or physiological saline was administered. Ten minutes later 0.5 milliliters of arginine (300 milligrams per milliliter, pH 7.2) is injected into the heart. Five minutes after receipt of the arginine the rats are decapitated and blood is collected into trasylol-EDTA. An appropriate aliquot was assayed for growth hormone, insulin and glucagon.

insulin = assay: Arginine-stimulated insulin level in Nembutal-anaesthetised rats after subcutaneous test compound; settings: p<0.01
Protocol: as §1

growth hormone [2] = assay: Duration of activity: plasma growth hormone by radioimmunoassay at hours after SC injection; settings: for GH (duration of activity) / GH (duration of growth hormone suppression): 1,000 μg/kg
Protocol: The animals were kept in separate cages. Twenty minutes before the end of the test, 50 mg/kg Nembutal® was administered to all the rats (i.p.). […] Plasma was separated and growth hormone concentration was determined by radio immunoassay. Comparisons between the control and experimental growth hormone values were evaluated by the Student "t" test and statistical significance at the 0.05 level or lower was used as the index of activity. Based upon that test [Brazeau et al., Science, 170, 77 (1973)], the prolonged growth hormone suppression by the compounds of this invention was established. The data obtained for the product of Example 1, illustrative of the duration of activity of the other compounds of this invention, is as follows: […]

glucagon = assay: Arginine-stimulated glucagon level in Nembutal-anaesthetised rats after subcutaneous test compound
Protocol: as §1

[3] = dose 2,000 μg/kg, control 220 ± 17
[4] = dose 2,000 μg/kg, control 34 ± 4
[5] = dose 2,000 μg/kg, control 38 ± 6

## C[C@@H](O)[C@@H]1NC(=O)[C@H](Cc2ccccc2)NC(=O)[C@H]([C@@H](C)O)NC(=O)[C@H](CCCCN)NC(=O)[C@@H](Cc2c[nH]c3ccccc23)NC(=O)[C@H](Cc2ccccc2)NC(=O)[C@H](Cc2ccccc2)NC(=O)[C@@H](CCCNC(=N)N)NC(=O)[C@H](CCCNC(=N)N)NC(=O)[C@@H](N)CSSC[C@@H](C(=O)O)NC(=O)[C@H](CO)NC1=O [Ex. 2, L-Cysteinyl-L-arginyl-D-arginyl-L-phenylalanyl-L-phenylalanyl-D-tryptophyl- L-lysyl-L-threonyl-L-phenylalanyl-L-threonyl-L-seryl-L-cysteine cyclic (1→12)-disulfide tetraacetate (salt)] (H-CR[dR]FF[dW]KTFTSC-OH; disulfide 1-12)
Growth hormone [1]; dose 1,000 μg/kg, control 141 ± 14
  GH: 4 ± 3 ng/mL
insulin; dose 1,000 μg/kg, control 227 ± 19
  INS: 89 ± 8 µU/mL
Growth hormone [2]; 2 hours, control 303 ± 53, p<0.001
  GH (duration of activity): 54 ± 11 ng/mL
Growth hormone [2]; 4 hours, control 73 ± 7
  GH (duration of activity): 83 ± 9 ng/mL
glucagon; dose 1,000 μg/kg, control 61 ± 7
  GLUN: 44 ± 8 pg/mL

## C[C@@H](O)[C@@H]1NC(=O)[C@H](Cc2ccccc2)NC(=O)[C@H]([C@@H](C)O)NC(=O)[C@H](CCCCN)NC(=O)[C@@H](Cc2c[nH]c3ccccc23)NC(=O)[C@H](Cc2ccccc2)NC(=O)[C@H](Cc2ccccc2)NC(=O)[C@@H](CO)NC(=O)[C@H](CCCNC(=N)N)NC(=O)[C@@H](N)CSSC[C@@H](C(=O)O)NC(=O)[C@H](CO)NC1=O [Ex. 3, L-Cysteinyl-L-arginyl-D-seryl-L-phenylalanyl-L-phenylalanyl-D-tryptophyl-L- lysyl-L-threonyl-L-phenylalanyl-L-threonyl-L-seryl-L-cysteine cyclic (1→12)-disulfide triacetate (salt)] (H-CR[dS]FF[dW]KTFTSC-OH; disulfide 1-12)
Growth hormone [1]; [3]
  GH: 37 ± 9 ng/mL
insulin; [4]
  INS: 8 ± 1 μU/ml
Growth hormone [2]; 2 hours, control 290 ± 64, p<0.02
  GH (duration of activity): 91 ± 29 ng/mL
Growth hormone [2]; 4 hours, control 133 ± 38, p<0.1 (not significant)
  GH (duration of activity): 57 ± 12 ng/mL
glucagon; [5]
  GLUN: 26 ± 5 pg/mL

## C[C@@H](O)[C@@H]1NC(=O)[C@H](Cc2ccccc2)NC(=O)[C@H]([C@@H](C)O)NC(=O)[C@H](CCCCN)NC(=O)[C@@H](Cc2c[nH]c3ccccc23)NC(=O)[C@H](Cc2ccccc2)NC(=O)[C@H](Cc2ccccc2)NC(=O)[C@@H](Cc2c[nH]cn2)NC(=O)[C@H](CCCNC(=N)N)NC(=O)[C@@H](N)CSSC[C@@H](C(=O)O)NC(=O)[C@H](CO)NC1=O [Ex. 4, L-Cysteinyl-L-arginyl-D-histidyl-L-phenylalanyl-L-phenylalanyl-D-tryptophyl-L-lysyl-L-threonyl-L-phenylalanyl-L-threonyl-L-seryl-L-cysteine cyclic (1→12) disulfide tetra-acetate (salt)] (H-CR[dH]FF[dW]KTFTSC-OH; disulfide 1-12)
Growth hormone [1]; dose 500 μg/kg, control 119 ± 29
  GH: 6 ± 1 ng/mL
insulin; dose 500 μg/kg, control 280 ± 15
  INS: 127 ± 22 μU/ml
Growth hormone [2]; 2 hours, control 82 ± 25, p<0.05
  GH (duration of activity): 24 ± 5 ng/mL
Growth hormone [2]; 4 hours, control 76 ± 28, p<0.1 (not significant)
  GH (duration of activity): 20 ± 7 ng/mL
Growth hormone [2]; 5 hours, control 171 ± 38, p<0.02
  GH (duration of activity): 54 ± 11 ng/mL
Growth hormone [2]; 6 hours, control 73 ± 10
  GH (duration of activity): 54 ± 13 ng/mL
glucagon; dose 500 μg/kg, control 44 ± 6
  GLUN: 29 ± 5 pg/mL

## C[C@@H](O)[C@@H]1NC(=O)[C@H](Cc2ccccc2)NC(=O)[C@H]([C@@H](C)O)NC(=O)[C@H](CCCCN)NC(=O)[C@@H](Cc2c[nH]c3ccccc23)NC(=O)[C@H](Cc2ccccc2)NC(=O)[C@H](Cc2ccccc2)NC(=O)[C@@H](Cc2ccc(O)cc2)NC(=O)[C@H](CCCCN)NC(=O)[C@@H](N)CSSC[C@@H](C(=O)O)NC(=O)[C@H](CO)NC1=O [Ex. 5, L-Cysteinyl-L-lysyl-D-tyrosyl-L-phenylalanyl-L-phenylalanyl-D-tryptophyl-L- lysyl-L-threonyl-L-phenylalanyl-L-threonyl-L-seryl-L-cysteine cyclic (1→12) disulfide] (H-CK[dY]FF[dW]KTFTSC-OH; disulfide 1-12)
Growth hormone [2]; 2 hours, control 84 ± 17, p<0.01
  GH (duration of growth hormone suppression): 27 ± 5 ng/mL
Growth hormone [2]; 2 hours, second experiment, control 80 ± 12
  GH (duration of growth hormone suppression): 72 ± 21 ng/mL
Growth hormone [2]; 4 hours, control 84 ± 22, p<0.05
  GH (duration of growth hormone suppression): 33 ± 4 ng/mL
Growth hormone [2]; 5 hours, control (printed 2 hours) 141 ± 51
  GH (duration of growth hormone suppression): 113 ± 27 ng/mL

## C[C@@H](O)[C@@H]1NC(=O)[C@H](Cc2ccccc2)NC(=O)[C@H]([C@@H](C)O)NC(=O)[C@H](CCCCN)NC(=O)[C@@H](Cc2c[nH]c3ccccc23)NC(=O)[C@H](Cc2ccccc2)NC(=O)[C@H](Cc2ccccc2)NC(=O)[C@@H](CCCNC(=N)N)NC(=O)[C@H](CCCCN)NC(=O)[C@@H](N)CSSC[C@@H](C(=O)O)NC(=O)[C@H](CO)NC1=O [Ex. 6] (H-CK[dR]FF[dW]KTFTSC-OH; disulfide 1-12)
Growth hormone [1]; [3]
  GH: 34 ± 8 ng/mL
insulin; [4]
  INS: 5 ± 1 µU/mL
Growth hormone [2]; 2 hours, control 148 ± 25, p<0.01
  GH (duration of activity): 53 ± 8 ng/mL
Growth hormone [2]; 4 hours, control 73 ± 24, p<0.1
  GH (duration of activity): 21 ± 4 ng/mL
glucagon; [5]
  GLUN: 32 ± 5 pg/mL

## C[C@@H](O)[C@@H]1NC(=O)[C@H](CCCCN)NC(=O)[C@@H](Cc2c[nH]c3ccccc23)NC(=O)[C@H](Cc2ccccc2)NC(=O)[C@H](Cc2ccccc2)NC(=O)[C@@H](Cc2ccc(O)cc2)NC(=O)[C@H](CCCNC(=N)N)NC(=O)[C@@H](N)CSSC[C@H](C(=O)O)NC(=O)[C@H](CO)NC(=O)[C@H]([C@@H](C)O)NC(=O)[C@H](Cc2ccccc2)NC1=O [L-Cysteinyl-L-arginyl-D-tyrosyl-L-phenylalanyl-L-phenylalanyl-D-tryptophyl- L-lysyl-L-threonyl-L-phenylalanyl-L-threonyl-L-seryl-D-cysteine cyclic (1→12) disuflide] (H-CR[dY]FF[dW]KTFTS[dC]-OH; disulfide 1-12)
Growth hormone [1]; dose 3,000 μg/kg sc, control 176 ± 33
  GH: 17 ± 3 ng/mL
Growth hormone [1]; summary of rat data
  reduction of secretion of growth hormone, insulin and glucagon (in words): effective agent for reducing secretion of growth hormone, insulin, and glucagon
insulin; dose 100 μg/kg sc, control 43 ± 3
  INS: 7 ± 2 µU/mL
insulin; dose 3,000 μg/kg sc, control 340 ± 17
  INS: 48 ± 9 µU/mL
Growth hormone [2]; 500 μg/kg SC, 6 hours after injection, control 103 ± 17
  Plasma GH: 152 ± 27 ng/mL
Growth hormone [2]; 1,000 μg/kg SC, 2 hours after injection, control 542 ± 145, p<0.01
  Plasma GH: 30 ± 5 ng/mL
Growth hormone [2]; 1,000 μg/kg SC, 4 hours after injection, control 107 ± 25, p<0.01
  Plasma GH: 37 ± 6 ng/mL
Growth hormone [2]; 1,000 μg/kg SC, 6 hours after injection, control 103 ± 17
  Plasma GH: 114 ± 22 ng/mL
Growth hormone [2]; summary of rat data
  duration of growth hormone suppression (in words): very prolonged activity in suppressing growth hormone blood levels
glucagon; dose 100 μg/kg sc, control 46 ± 6, p>0.05
  GLUN: 31 ± 4 pg/mL
glucagon; dose 3,000 μg/kg sc, control 48 ± 5, p<0.01
  GLUN: 23 ± 4 pg/mL

## C[C@H](N)C(=O)NCC(=O)N[C@H]1CSSC[C@@H](C(=O)O)NC(=O)[C@H](CO)NC(=O)[C@H]([C@@H](C)O)NC(=O)[C@H](Cc2ccccc2)NC(=O)[C@H]([C@@H](C)O)NC(=O)[C@H](CCCCN)NC(=O)[C@H](Cc2c[nH]c3ccccc23)NC(=O)[C@H](Cc2ccccc2)NC(=O)[C@H](Cc2ccccc2)NC(=O)[C@H](CC(N)=O)NC(=O)[C@H](CCCCN)NC1=O [SRIF, reference compound]
insulin; dose 200 μg/kg sc, control 43 ± 3
  INS: 31 ± 2 µU/mL
glucagon; dose 200 μg/kg sc, control 46 ± 6, p<0.01
  GLUN: 21 ± 4 pg/mL
